{"source": "patent US20240294523A1", "about": "“HETEROCYCLIC LACTAM COMPOUND, AND PREPARATION METHOD THEREFOR AND PHARMACEUTICAL USE THEREOF” (Genfleet Therapeutics (Shanghai) Inc., priority 2021, published 2024)", "data": [{"test_system": "U937 cells", "test": "Inhibition of TNF-α-induced programmed necrosis of U937 cells (CellTiter-Glo)", "type": "cell-based", "details": "U-937, human TNF-α + Q-VD-Oph, 48 hours", "method": "The U937 cell line used in the following test examples was from ATCC, number: CRL-1593.2, batch number: 63479999, culture medium: RPMI-1640+10% FBS.\n(§1) The reagents used, suppliers and product numbers of the reagents were as follows: RPMI-1640, Gibco, 11875-093; FBS, Gibco, 10099-141; Trypsin-EDTA, Gibco, 25200-072; PS, Gibco, 15140-122; CellTiter Glo , Progema, G7573; DMSO, VWR AMRESCO, 0231-500ML; TNF-α protein (human, recombinant), Peprotech, 300-01A; Q-VD-Oph, MCE, HY-12305; V-shaped bottom plate, Corning, 3894; 384-well low-flange white flat-bottom microplate, Corning, 3570; RIPK1, Eurofins, 16-022; MOPS, BDH, 441644J; EDTA, Sigma, E5134; Myelin basic protein, Sigma, M1891-25.00 MG; Magnesium acetate, Merck, DU008026; ATP (non-radioactive label), Sigma, A-7699; ATP (radioactive label), Hartmann Analytic, DU008054; Phosphoric acid, Metlab, DU003000; Z-VAD: Shanghai Yuang Chemical Industry, YA02401.\nThe compounds to be tested were dissolved in DMSO and diluted with DMSO into a series of concentration gradients. 5000 U937 cells/well were seeded in a 384-well white plate. Compounds of corresponding concentrations were added to each well and mixed evenly with the cells. At the same time, human TNF-a and Q-VD-Oph were added to induce programmed necrosis of the cells. The cells were placed at 37° C., 5% CO2 incubator for 48 hours. CellTiter-Glo reagent was used for detection, and the chemiluminescence reading was detected using a microplate reader after sufficient lysis reaction. The test results were calculated using the formula SR (%)=(RLU compound−RLU blank)/(RLU high control−RLU blank)×100%. The survival rate and the final concentration of the corresponding compound were drawn into a curve and fitted using four parameters. Inhibitory IC50 on TNF-α-induced cell necrosis of the compounds were calculated.", "units": {"IC50": "µM"}, "values": [{"smiles": "C[C@@H](C(F)F)N1CCc2c(nn(Cc3c(F)cccc3F)c2Cl)C1=O", "note": "(single isomer, unassigned) [Compound Z9-1]", "IC50": 0.256}, {"smiles": "C[C@H](C(F)F)N1CCc2c(nn(Cc3c(F)cccc3F)c2Br)C1=O", "note": "(single isomer, unassigned) [Compound Z24-1]", "IC50": 0.119}, {"smiles": "O=C1c2nn(Cc3ccccc3)c(Cl)c2CCN1CC(F)F", "note": "[Compound Z1, 2-benzyl-3-chloro-6-(2,2-difluoroethyl)-2,4,5,6-tetrahydro-7H-pyrazolo[3,4-c]pyridine-7-one]", "IC50": 0.461}, {"smiles": "O=C1c2nn(Cc3ccccc3F)c(Cl)c2CCN1CC(F)F", "note": "[Compound Z2, 3-chloro-6-(2,2-difluoroethyl)-2-(2-fluorobenzyl)-2,4,5,6-tetrahydro-7H-pyrazolo[3,4-c]pyridin-7-one]", "IC50": 0.279}, {"smiles": "O=C1c2nn(Cc3c(F)cccc3F)c(Cl)c2CCN1CC(F)F", "note": "[Compound Z3, 3-chloro-2-(2,6-difluorobenzyl)-6-(2,2-difluoroethyl)-2,4,5,6-tetrahydro-7H-pyrazolo[3,4-c]pyridin-7-one]", "IC50": 0.129}, {"smiles": "N#CCCN1CCc2c(nn(Cc3c(F)cccc3F)c2Cl)C1=O", "note": "[Compound Z4, 3-(3-chloro-2-(2,6-difluorobenzyl)-7-oxo-2,4,5,7-tetrahydro-6H-pyrazolo[3,4-c]pyridine-6-yl)propionitrile]", "IC50": 1.36}, {"smiles": "O=C1c2nn(Cc3cc(F)ccc3F)c(Cl)c2CCN1CC(F)F", "note": "[Compound Z5, 3-chloro-2-(2,5-difluorobenzyl)-6-(2,2-difluoroethyl)-2,4,5,6-tetrahydro-7H-pyrazolo[3,4-c]pyridin-7-one]", "IC50": 0.205}, {"smiles": "O=C1c2nn(Cc3c(F)ccc(F)c3F)c(Cl)c2CCN1CC(F)F", "note": "[Compound Z6, 3-chloro-6-(2,2-difluoroethyl)-2-(2,3,6-trifluorobenzyl)-2,4,5,6-tetrahydro-7H-pyrazolo[3,4-c]pyridin-7-one]", "IC50": 0.482}, {"smiles": "N#CCC1(N2CCc3c(nn(Cc4c(F)cccc4F)c3Cl)C2=O)CC1", "note": "[Compound Z7, 2-(1-(3-chloro-2-(2,6-difluorobenzyl)-7-oxo-2,4,5,7-tetrahydro-6H-pyrazolo[3,4-c]pyridin-6-yl)cyclopropyl)acetonitrile]", "IC50": 1.83}, {"smiles": "O=C1c2nn(Cc3ccccc3Cl)c(Cl)c2CCN1CC(F)F", "note": "[Compound Z8, 3-chloro-2-(2-chlorobenzyl)-6-(2,2-difluoroethyl)-2,4,5,6-tetrahydro-7H-pyrazolo[3,4-c]pyridin-7-one]", "IC50": 0.253}, {"smiles": "O=C1c2nn(Cc3c(F)cccc3F)c(Cl)c2CCN1C1(C(F)F)CC1", "note": "[Compound Z10, 3-chloro-2-(2,6-difluorobenzyl)-6-(1-(difluoromethyl)cyclopropyl)-2,4,5,6-tetrahydro-7H-pyrazolo[3,4-c]pyridin-7-one]", "IC50": 0.676}, {"smiles": "O=C1c2nn(Cc3c(F)cccc3F)c(Cl)c2CCN1CC1(F)CC1", "note": "[Compound Z11, 3-chloro-2-(2,6-difluorobenzyl)-6-((1-fluorocyclopropyl)methyl)-2,4,5,6-tetrahydro-7H-pyrazolo[3,4-c]pyridin-7-one]", "IC50": 1.6}, {"smiles": "CC(C(F)F)N1CCc2c(nn(Cc3ccccc3OC(F)(F)F)c2Cl)C1=O", "note": "(stereo not shown) [Compound Z12, 3-chloro-6-(1,1-difluoropropan-2-yl)-2-(2-(trifluoromethoxy)benzyl)-2,4,5,6-tetrahydro-7H-pyrazolo[3,4-c]pyridin-7-one]", "IC50": 1.38}, {"smiles": "O=C1c2nn(Cc3c(F)cccc3F)c(Cl)c2CCN1C(C(F)F)C1CC1", "note": "(stereo not shown) [Compound Z13, 3-chloro-6-(1-cyclopropyl-2,2-difluoroethyl)-2-(2,6-difluorobenzyl)-2,4,5,6-tetrahydro-7H-pyrazolo[3,4-c]pyridin-7-one]", "IC50": 0.12}, {"smiles": "CC(C(F)F)N1CCc2c(nn(Cc3cc(F)cc(F)c3)c2Cl)C1=O", "note": "(stereo not shown) [Compound Z14, 3-chloro-2-(3,5-difluorobenzyl)-6-(1,1-difluoropropan-2-yl)-2,4,5,6-tetrahydro-7H-pyrazolo[3,4-c]pyridin-7-one]", "IC50": 0.982}, {"smiles": "CCC(C(F)F)N1CCc2c(nn(Cc3c(F)cccc3F)c2Cl)C1=O", "note": "(stereo not shown) [Compound Z15, 3-chloro-2-(2,6-difluorobenzyl)-6-(1,1-difluorobutan-2-yl)-2,4,5,6-tetrahydro-7H-pyrazolo[3,4-c]pyridin-7-one]", "IC50": 0.127}, {"smiles": "CC(COc1ccc(C#N)cn1)N1CCc2c(nn(Cc3ccccc3)c2Cl)C1=O", "note": "(stereo not shown) [Compound Z16, 6-(2-(2-benzyl-3-chloro-7-oxo-2,4,5,7-tetrahydro-6H-pyrazolo[3,4-c]pyridine-6-yl)propoxy)nicotinonitrile]", "IC50": 2.95}, {"smiles": "CC(C(F)F)N1CCc2c(C(F)(F)F)nn(Cc3c(F)cccc3F)c2C1=O", "note": "(stereo not shown) [Compound Z17, 1-(2,6-difluorobenzyl)-6-(1,1-difluoropropan-2-yl)-3-(trifluoromethyl)-1,4,5,6-tetrahydro-7H-pyrazolo[3,4-c]pyridin-7-one]", "IC50": 1.82}, {"smiles": "CC(C(F)F)N1CCc2c(nn(Cc3ccc(F)cc3F)c2Cl)C1=O", "note": "(stereo not shown) [Compound Z18, 3-chloro-2-(2,4-difluorobenzyl)-6-(1,1-difluoropropan-2-yl)-2,4,5,6-tetrahydro-7H-pyrazolo[3,4-c]pyridin-7-one]", "IC50": 0.194}, {"smiles": "CC(C(F)F)N1CCc2c(nn(Cc3ccccc3F)c2Cl)C1=O", "note": "(stereo not shown) [Compound Z19, 3-chloro-6-(1,1-difluoropropan-2-yl)-2-(2-fluorobenzyl)-2,4,5,6-tetrahydro-7H-pyrazolo[3,4-c]pyridin-7-one]", "IC50": 0.168}, {"smiles": "CCC(=O)N1CCc2c(nn(Cc3c(F)cccc3F)c2Cl)C1=O", "note": "[Compound Z20, 3-chloro-2-(2,6-difluorobenzyl)-6-propionyl-2,4,5,6-tetrahydro-7H-pyrazolo[3,4-c]pyridin-7-one]", "IC50": 0.3}, {"smiles": "CC(C(F)F)N1CCc2c(nn(Cc3cc(F)c(F)cc3F)c2Cl)C1=O", "note": "(stereo not shown) [Compound Z21, 3-chloro-6-(1,1-difluoropropan-2-yl)-2-(2,4,5-trifluorobenzyl)-2,4,5,6-tetrahydro-7H-pyrazolo[3,4-c]pyridin-7-one]", "IC50": 0.534}, {"smiles": "CC(C(F)F)N1CCc2c(nn(Cc3c(F)cc(F)cc3F)c2Cl)C1=O", "note": "(stereo not shown) [Compound Z22, 3-chloro-6-(1,1-difluoropropan-2-yl)-2-(2,4,6-trifluorobenzyl)-2,4,5,6-tetrahydro-7H-pyrazolo[3,4-c]pyridin-7-one]", "IC50": 0.222}, {"smiles": "O=C1c2nn(Cc3c(F)cccc3F)c(Cl)c2CCN1C1CCOCC1", "note": "[Compound Z23, 3-chloro-2-(2,6-difluorobenzyl)-6-(tetrahydro-2H-pyran-4-yl)-2,4,5,6-tetrahydro-7H-pyrazolo[3,4-c]pyridin-7-one]", "IC50": 0.311}, {"smiles": "CC(C(F)F)N1CCc2c(nn(Cc3c(F)cccc3F)c2Br)C1=O", "note": "(stereo not shown) [Compound Z24, 3-bromo-2-(2,6-difluorobenzyl)-6-(1,1-difluoropropan-2-yl)-2,4,5,6-tetrahydro-7H-pyrazolo[3,4-c]pyridin-7-one]", "IC50": 0.0489}, {"smiles": "CC1(C)CC(N2CCc3c(nn(Cc4c(F)cccc4F)c3Cl)C2=O)CCO1", "note": "(stereo not shown) [Compound Z25, 3-chloro-2-(2,6-difluorobenzyl)-6-(2,2-dimethyltetrahydro-2H-pyran-4-yl)-2,4,5,6-tetrahydro-7H-pyrazolo[3,4-c]pyridin-7-one]", "IC50": 0.464}, {"smiles": "CC(=O)N1CCc2c(nn(Cc3c(F)cccc3F)c2Cl)C1=O", "note": "[Compound Z26, 6-acetyl-3-chloro-2-(2,6-difluorobenzyl)-2,4,5,6-tetrahydro-7H-pyrazolo[3,4-c]pyridin-7-one]", "IC50": 0.361}]}, {"molecular_target": "RIPK1 (Homo sapiens (Human), UniProt Q13546)", "sequence (Q13546 whole entry)": "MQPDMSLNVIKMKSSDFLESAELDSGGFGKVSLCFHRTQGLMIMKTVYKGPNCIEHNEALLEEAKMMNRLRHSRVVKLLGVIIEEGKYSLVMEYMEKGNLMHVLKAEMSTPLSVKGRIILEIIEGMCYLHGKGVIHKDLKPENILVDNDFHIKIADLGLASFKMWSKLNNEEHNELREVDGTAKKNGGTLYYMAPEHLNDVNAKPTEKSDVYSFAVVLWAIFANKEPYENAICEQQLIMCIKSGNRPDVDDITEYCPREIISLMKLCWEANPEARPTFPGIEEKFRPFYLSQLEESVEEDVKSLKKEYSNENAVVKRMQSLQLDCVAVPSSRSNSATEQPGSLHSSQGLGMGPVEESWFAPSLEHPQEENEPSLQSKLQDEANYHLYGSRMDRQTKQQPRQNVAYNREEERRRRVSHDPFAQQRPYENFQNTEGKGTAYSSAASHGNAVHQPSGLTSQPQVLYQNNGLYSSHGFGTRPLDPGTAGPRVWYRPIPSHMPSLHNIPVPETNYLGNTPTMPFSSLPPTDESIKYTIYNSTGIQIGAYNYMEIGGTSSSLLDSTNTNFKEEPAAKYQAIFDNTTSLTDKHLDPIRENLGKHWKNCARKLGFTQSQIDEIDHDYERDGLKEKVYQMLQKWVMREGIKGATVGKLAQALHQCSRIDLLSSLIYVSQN", "test": "Inhibitory activity against RIPK1 enzyme (33P-ATP, MBP substrate)", "type": "biochemical", "details": "36 nM RIPK1, 0.33 mg/ml MBP, 155 μM ATP, 2 hours, room temperature", "method": "as §1\nThe compound to be tested was dissolved in DMSO to prepare a 10 mM stock solution, diluted 3.16 times with DMSO into a series of concentration gradients, and then MOPS pH 7.0 buffer solution was used to dilute 50 times to prepare a working solution, and mixed well with 36 nM RIPK1 (final concentration), 0.33 mg/ml substrate MBP. Afterwards, 10 mM magnesium ions and 155 μM phosphorus 33 isotope-labeled ATP were added to react, The final concentration of DMSO was 2%. After the reaction was proceeded at room temperature for 2 hours, phosphoric acid was added to terminate. The final reaction system was processed and detected using a liquid scintillation counter. After the test results are subtracted from the blank control and compared with the reading value of the control group to convert to the activity percentage, which was plotted as a curve with the final concentration of the corresponding compound, and four-parameter fitting was used to obtain the IC50 of the compound that inhibits RIPK1 enzyme activity.", "units": {"IC50": "µM"}, "values": [{"smiles": "O=C1c2nn(Cc3ccccc3)c(Cl)c2CCN1CC(F)F", "note": "[Compound Z1, 2-benzyl-3-chloro-6-(2,2-difluoroethyl)-2,4,5,6-tetrahydro-7H-pyrazolo[3,4-c]pyridine-7-one]", "IC50": 0.065}, {"smiles": "O=C1c2nn(Cc3ccccc3F)c(Cl)c2CCN1CC(F)F", "note": "[Compound Z2, 3-chloro-6-(2,2-difluoroethyl)-2-(2-fluorobenzyl)-2,4,5,6-tetrahydro-7H-pyrazolo[3,4-c]pyridin-7-one]", "IC50": 0.03}, {"smiles": "O=C1c2nn(Cc3c(F)cccc3F)c(Cl)c2CCN1CC(F)F", "note": "[Compound Z3, 3-chloro-2-(2,6-difluorobenzyl)-6-(2,2-difluoroethyl)-2,4,5,6-tetrahydro-7H-pyrazolo[3,4-c]pyridin-7-one]", "IC50": 0.048}, {"smiles": "O=C1c2nn(Cc3ccccc3)c(Cl)c2CCCN1CC(F)F", "note": "[Compound Z42]", "IC50": 0.184}]}]}
